According to patent US11535838B2, “Serine protease molecules and therapies” (Research Development Foundation, priority 2012, dated 2022):

How the values were obtained:
A375-M [1] = test: Cytotoxic effects of GrB/ZME fusion constructs; format: cell-based; details: specifically targeted by ZME
Text: (§1) GrB-ZME(VL-VH) fusion proteins were constructed as indicated above using different linkers between the GrB and ZME sequences. The construct SL used the G4S linker; LL was four repeats of the HL (EAAAK (SEQ ID NO: 14)) linker and X was a G4S+218 linker.
(§2) Two glycosylation sites were identified within the GrB molecule (d1 and d2) and modified the GrB/scFvMEL fusion construct as detailed above and as shown in FIG. 4 (d1 indicates N51S; d2 indicates N84A). Each glycosylation site was modified and then a molecule containing both modifications was generated. The individual modifications had little effect on in vitro GrB enzymatic activity (see, e.g., FIG. 4). […] There was little impact on the non-specific cell line (SKOV3).
(§3) Three expression constructs were developed and tested. (LL) encoded GrB-HL-HL-HL-HL-ZME(VL-VH), plasmid designation pSECTag-GrB-HL4-ZME; (E) encoded GrB HL HL HL HL T1 ZME(VL-VH), plasmid designation pSECTag-GrB-HL4-T1-ZME; and (J) (LL) encoded GrB (d1, A, N) HL HL HL HL ZME(VL-VH), plasmid designation pSECTag-GrB-HL4-ZME. The constructs were expressed and tested. […] Incorporation of d1 modified GrB into the construct further increased the specific cytotoxicity of the construct with no impact on non-specific cytotoxicity.
(§4) These constructs were expressed and tested.
(§5) These constructs were expressed and tested. […] Incorporation of the “26” molecule increased the toxicity to target and non-target cells alike.

AAB-527 [2] = test: Cytotoxic effects of GrB/ZME fusion constructs; format: cell-based; details: AAB-527, specifically targeted by ZME
Text: as §1, §2, §3, §4, §5

SKOV3 [3] = test: Cytotoxic effects of GrB/ZME fusion constructs; format: cell-based; details: SKOV3, non-specific control
Text: as §1, §2, §3, §4, §5

Calu-3 = test: Cytotoxic effects of GrB/4D5 fusion constructs with and without a translocation domain; format: cell-based; details: Calu-3, Her2 Exp. High
Text: (§6) Further GrB expression constructs were developed and tested.
as §4

MDA-MB-453 = test: as above; format: cell-based; details: MDA-MB-453, Her2 Exp. High
Text: as §6, §4

Me-180 = test: as above; format: cell-based; details: Me-180, Her2 Exp. none
Text: as §6, §4

NCI-N87 [4] = test: as above; format: cell-based; details: NCI-N87, Her2 Exp. High
Text: as §6, §4

SKBR3 [5] = test: as above; format: cell-based; details: SKBR3, Her2 Exp. High
Text: as §6, §4

SKOV3 [6] = test: as above; format: cell-based; details: SKOV3, Her2 Exp. High
Text: as §6, §4

A172 = test: Cytotoxic effects of GrB versus GrB-TWEAK; format: cell-based
Text: (§7) Further GrB expression constructs were developed and tested. (GrB) encoded GrB, plasmid designation pSECTag-GrB. […] These constructs were expressed and tested.

A2780 = test: Cytotoxic effects of GrB versus GrB-TWEAK; format: cell-based
Text: as §7

A375-M [7] = test: Cytotoxic effects of GrB versus GrB-TWEAK; format: cell-based
Text: as §7

AAB-527 [8] = test: Cytotoxic effects of GrB versus GrB-TWEAK; format: cell-based
Text: as §7

BxPC-3 = test: Cytotoxic effects of GrB versus GrB-TWEAK; format: cell-based
Text: as §7

ES-2 = test: Cytotoxic effects of GrB versus GrB-TWEAK; format: cell-based
Text: as §7

HEY = test: Cytotoxic effects of GrB versus GrB-TWEAK; format: cell-based
Text: as §7

HT-1080 = test: Cytotoxic effects of GrB versus GrB-TWEAK; format: cell-based
Text: as §7

HT-29 [9] = test: Cytotoxic effects of GrB versus GrB-TWEAK; format: cell-based
Text: as §7

HeyA8-MDR = test: Cytotoxic effects of GrB versus GrB-TWEAK; format: cell-based
Text: as §7

HeyA8 = test: Cytotoxic effects of GrB versus GrB-TWEAK; format: cell-based
Text: as §7

Jurkat = test: Cytotoxic effects of GrB versus GrB-TWEAK; format: cell-based
Text: as §7

MCF-7 [10] = test: Cytotoxic effects of GrB versus GrB-TWEAK; format: cell-based
Text: as §7

MDA-MB231 = test: Cytotoxic effects of GrB versus GrB-TWEAK; format: cell-based
Text: as §7

MDA-MB435/MDR1 = test: Cytotoxic effects of GrB versus GrB-TWEAK; format: cell-based
Text: as §7

MDA-MB435 = test: Cytotoxic effects of GrB versus GrB-TWEAK; format: cell-based
Text: as §7

OC-316 = test: Cytotoxic effects of GrB versus GrB-TWEAK; format: cell-based
Text: as §7

SB2 [11] = test: Cytotoxic effects of GrB versus GrB-TWEAK; format: cell-based
Text: as §7

SK-Mel-1 = test: Cytotoxic effects of GrB versus GrB-TWEAK; format: cell-based
Text: as §7

SK-Mel-28 = test: Cytotoxic effects of GrB versus GrB-TWEAK; format: cell-based
Text: as §7

SK-Mel-5 = test: Cytotoxic effects of GrB versus GrB-TWEAK; format: cell-based
Text: as §7

SKBR3 [12] = test: Cytotoxic effects of GrB versus GrB-TWEAK; format: cell-based
Text: as §7

T-24 = test: Cytotoxic effects of GrB versus GrB-TWEAK; format: cell-based
Text: as §7

U87MG = test: Cytotoxic effects of GrB versus GrB-TWEAK; format: cell-based
Text: as §7

WM35 [13] = test: Cytotoxic effects of GrB versus GrB-TWEAK; format: cell-based
Text: as §7

Calu3 = test: In vitro cytotoxic effects of GrB-based fusions, crystal violet; format: cell-based; details: Table 11, Calu3, 72 h exposure
NCI-N87 [14] = test: as above; format: cell-based; details: Table 11, NCI-N87, 72 h exposure
MDA MB453 = test: as above; format: cell-based, human; details: Table 11, MDA MB453, 72 h exposure
eB-1 = test: as above; format: cell-based, human; details: Table 11, eB-1, 72 h exposure
MDA MB435 = test: as above; format: cell-based; details: Table 11, MDA MB435, 72 h exposure
Me180 = test: as above; format: cell-based, human; details: Table 11, Me180, 72 h exposure
A375 = test: Cytotoxicity of GrB-Fc-IT4 constructs; format: cell-based
Text: (§8) As an initial test of this arrangement a construct was produced comprising GrB-Fc-IT4 (scFv). Specifically, the IT4 scFv targets the product of the tumor necrosis factor receptor superfamily, member 12A (TNFRSF12A) gene and was previously described in Zhou et al., 2011, which is incorporated herein by reference. The sequence of the fusion protein produced by the construct is provided as SEQ ID NO: 45. The constructs was expressed and purified as detailed supra and tested for activity against a panel of cells lines (using GrB alone a control).

A549 = test: Cytotoxicity of GrB-Fc-IT4 constructs; format: cell-based
Text: as §8

AsPc-1 = test: Cytotoxicity of GrB-Fc-IT4 constructs; format: cell-based
Text: as §8

Capan-1 = test: Cytotoxicity of GrB-Fc-IT4 constructs; format: cell-based
Text: as §8

Capan-2 = test: Cytotoxicity of GrB-Fc-IT4 constructs; format: cell-based
Text: as §8

H1437 = test: Cytotoxicity of GrB-Fc-IT4 constructs; format: cell-based
Text: as §8

H1975 = test: Cytotoxicity of GrB-Fc-IT4 constructs; format: cell-based
Text: as §8

H2073 = test: Cytotoxicity of GrB-Fc-IT4 constructs; format: cell-based
Text: as §8

H3255 = test: Cytotoxicity of GrB-Fc-IT4 constructs; format: cell-based
Text: as §8

H358 = test: Cytotoxicity of GrB-Fc-IT4 constructs; format: cell-based
Text: as §8

H520 = test: Cytotoxicity of GrB-Fc-IT4 constructs; format: cell-based
Text: as §8

HCC2279 = test: Cytotoxicity of GrB-Fc-IT4 constructs; format: cell-based
Text: as §8

HCC827 = test: Cytotoxicity of GrB-Fc-IT4 constructs; format: cell-based
Text: as §8

HT-29 [15] = test: Cytotoxicity of GrB-Fc-IT4 constructs; format: cell-based
Text: as §8

L3.6p1 = test: Cytotoxicity of GrB-Fc-IT4 constructs; format: cell-based
Text: as §8

MCF-7 [16] = test: Cytotoxicity of GrB-Fc-IT4 constructs; format: cell-based
Text: as §8

MDA-MB-231 = test: Cytotoxicity of GrB-Fc-IT4 constructs; format: cell-based
Text: as §8

MDA-MB-435 = test: Cytotoxicity of GrB-Fc-IT4 constructs; format: cell-based
Text: as §8

MDA-MD-231-Luc = test: Cytotoxicity of GrB-Fc-IT4 constructs; format: cell-based
Text: as §8

MEF 3.5 −/− = test: Cytotoxicity of GrB-Fc-IT4 constructs; format: cell-based
Text: as §8

SB2 [17] = test: Cytotoxicity of GrB-Fc-IT4 constructs; format: cell-based
Text: as §8

SK-MEF-28 = test: Cytotoxicity of GrB-Fc-IT4 constructs; format: cell-based
Text: as §8

WM35P2N1 = test: Cytotoxicity of GrB-Fc-IT4 constructs; format: cell-based
Text: as §8

WM35 [18] = test: Cytotoxicity of GrB-Fc-IT4 constructs; format: cell-based
Text: as §8

[19] = Enzymatic assay of GrB component, continuous colorimetric assay; format: biochemical; details: substrate BAADT, 25° C., native GrB as standard
Protocol: The enzymatic activity of the GrB component was determined in a continuous colorimetric assay using N-α-t-butoxycarbonyl-L-alanyl-L-alanyl-L-aspartyl-thiobenzylester (BAADT) as a specific substrate (Liu et al., 2003). Assays consisted of commercial human GrB (Enzyme Systems Products, Livermore, Calif.) or GrB-based fusion proteins in BAADT at 25° C. […] The specific activity of GrB-based fusion proteins was calculated using native GrB as the standard.

In the case of “GrB: recombinant Granzyme B without targeting moiety, plasmid pSECTag-GrB, used as control”, the IC50 (A375-M [1]) is reported as > 2000 nM, the IC50 (AAB-527 [2]) is reported as > 2000 nM and the IC50 (SKOV3 [3]) is reported as > 2000 nM. The IC50 (Calu-3) was > 1000 nM, the IC50 (MDA-MB-453) was > 1000 nM and the IC50 (Me-180) was > 1000 nM. The IC50 (NCI-N87 [4]) was > 1000 nM, the IC50 (SKBR3 [5]) was > 1000 nM and the IC50 (SKOV3 [6]) was > 1000 nM. The IC50 (A172) was 1910 nM, the IC50 (A2780) was > 1300 nM and the IC50 (A375-M [7]) was > 1920 nM. The IC50 (AAB-527 [8]) was 1040 nM, the IC50 (BxPC-3) was > 1920 nM and the IC50 (ES-2) was 1440 nM. The IC50 (HEY) was 1020 nM, the IC50 (HT-1080) was 1300 nM and the IC50 (HT-29 [9]) was 800 nM. For the same substance, the IC50 (HeyA8-MDR) was > 700 nM, the IC50 (HeyA8) was 841 nM and the IC50 (Jurkat) was > 700 nM. The IC50 (MCF-7 [10]) was > 1920 nM, the IC50 (MDA-MB231) was > 1920 nM and the IC50 (MDA-MB435/MDR1) was 447 nM. The IC50 (MDA-MB435) was 445 nM, the IC50 (OC-316) was > 1920 nM and the IC50 (SB2 [11]) was > 1920 nM. For the same substance, the IC50 (SK-Mel-1) was > 1920 nM, the IC50 (SK-Mel-28) was > 1920 nM and the IC50 (SK-Mel-5) was 3010 nM. It also gave an IC50 (SKBR3 [12]) of 660 nM, an IC50 (T-24) of 2630 nM and an IC50 (U87MG) of 825 nM. The IC50 (WM35 [13]) was > 1920 nM, the IC50 (Calu3) was > 1500 nM and the IC50 (NCI-N87 [14]) was > 1500 nM. For the same substance, the IC50 (MDA MB453) was > 1500 nM, the IC50 (eB-1) was > 1500 nM and the IC50 (MDA MB435) was > 1500 nM. The IC50 (Me180) was > 1500 nM, the IC50 (A375) was > 1920 nM and the IC50 (A549) was 602 nM. The IC50 (AsPc-1) was 1300 nM, the IC50 (Capan-1) was 2340 nM and the IC50 (Capan-2) was > 3200 nM. The IC50 (H1437) was > 3200 nM, the IC50 (H1975) was > 3200 nM and the IC50 (H2073) was > 3200 nM. The IC50 (H3255) was 2360 nM, the IC50 (H358) was > 3200 nM and the IC50 (H520) was 259 nM. For the same substance, the IC50 (HCC2279) was 526 nM, the IC50 (HCC827) was 1410 nM and the IC50 (HT-29 [15]) was > 3200 nM. For the same substance, the IC50 (L3.6p1) was 1220 nM, the IC50 (MCF-7 [16]) was > 1920 nM and the IC50 (MDA-MB-231) was > 1930 nM. The IC50 (MDA-MB-435) was 445 nM, the IC50 (MDA-MD-231-Luc) was 3550 nM and the IC50 (MEF 3.5 −/−) was > 3200 nM. For the same substance, the IC50 (SB2 [17]) was > 1920 nM, the IC50 (SK-MEF-28) was > 1920 nM and the IC50 (WM35P2N1) was 1540 nM. The IC50 (WM35 [18]) was > 1920 nM.

With “native GrB: commercial human GrB (Enzyme Systems Products) used as the standard” the GrB enzymatic activity [19] was 1.19×10^5 U/μmoL.
